Source: ChEMBL document CHEMBL1140240, “Glutamic acid analogues as potent dipeptidyl peptidase IV and 8 inhibitors” (Bioorg Med Chem Lett, 2005)

Molecular target: Dipeptidyl peptidase 4 (Homo sapiens, UniProt P27487)
Sequence (P27487 whole entry): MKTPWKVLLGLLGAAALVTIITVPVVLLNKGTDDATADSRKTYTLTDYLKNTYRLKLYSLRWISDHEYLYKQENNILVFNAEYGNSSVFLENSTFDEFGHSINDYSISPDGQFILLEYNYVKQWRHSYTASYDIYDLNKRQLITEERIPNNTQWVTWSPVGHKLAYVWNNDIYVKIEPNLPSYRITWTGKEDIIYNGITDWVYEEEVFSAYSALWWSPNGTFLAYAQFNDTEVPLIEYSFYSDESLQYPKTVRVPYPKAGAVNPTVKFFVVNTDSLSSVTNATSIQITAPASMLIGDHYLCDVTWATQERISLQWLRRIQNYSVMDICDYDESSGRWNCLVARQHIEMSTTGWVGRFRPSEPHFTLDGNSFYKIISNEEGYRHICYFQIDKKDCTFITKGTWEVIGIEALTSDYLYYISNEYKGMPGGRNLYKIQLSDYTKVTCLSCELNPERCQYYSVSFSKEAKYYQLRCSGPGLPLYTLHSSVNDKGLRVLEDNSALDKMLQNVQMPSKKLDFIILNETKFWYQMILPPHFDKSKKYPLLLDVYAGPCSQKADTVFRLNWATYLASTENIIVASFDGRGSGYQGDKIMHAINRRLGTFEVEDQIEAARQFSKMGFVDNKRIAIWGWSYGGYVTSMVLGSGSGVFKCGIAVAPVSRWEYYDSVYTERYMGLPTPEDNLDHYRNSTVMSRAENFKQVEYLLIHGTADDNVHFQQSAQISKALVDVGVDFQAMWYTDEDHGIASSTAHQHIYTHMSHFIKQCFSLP

| IC50 [nM] | Compound |
| --- | --- |
| 99 | N#C[C@@H]1CCCN1C(=O)[C@@H](N)CC(=O)N1CCc2ccccc2C1 |
| 97 | COc1cc2c(cc1OC)C(Cc1ccccc1)N(C(=O)C[C@H](N)C(=O)N1CCC[C@H]1C#N)CC2 (stereo not given in full) |
| 116 | COc1ccc(CCNC(=O)C[C@H](N)C(=O)N2CCC[C@H]2C#N)cc1OC |
| 195 | COc1ccc2c(c1)C(C(C)(C)C)N(C(=O)C[C@H](N)C(=O)N1CCC[C@H]1C#N)CC2 (stereo not given in full) |
| 47 | COc1cc2c(cc1OC)C(C(C)C)N(C(=O)C[C@H](N)C(=O)N1CCC[C@H]1C#N)CC2 (stereo not given in full) |
| 45 | COc1cc2c(cc1OC)C(CCO)N(C(=O)C[C@H](N)C(=O)N1CCC[C@H]1C#N)CC2 (stereo not given in full) |
| 72 | COc1ccc2c(c1)CCN(C(=O)C[C@H](N)C(=O)N1CCC[C@H]1C#N)C2C(C)(C)C (stereo not given in full) |
| 63 | COc1cc2c(cc1OC)CN(C(=O)C[C@H](N)C(=O)N1CCC[C@H]1C#N)CC2 |
| 73 | COc1cc2c(cc1OC)C(C(C)(C)C)N(C(=O)C[C@H](N)C(=O)N1CCC[C@H]1C#N)CC2 (stereo not given in full) |

Second part, the molecule before the results:

| Compound | IC50 [nM] |
| --- | --- |
| CC(C)(C)C(NC(=O)C[C@H](N)C(=O)N1CCC[C@H]1C#N)c1ccccc1 (stereo not given in full) | 251 |
| CCC(NC(=O)C[C@H](N)C(=O)N1CCC[C@H]1C#N)c1ccccc1 (stereo not given in full) | 140 |
| N#C[C@@H]1CCCN1C(=O)[C@@H](N)CC(=O)N1CCN(C(=O)c2ccccc2)CC1 | 123 |
| CC(C)C(NC(=O)C[C@H](N)C(=O)N1CCC[C@H]1C#N)c1ccccc1 (stereo not given in full) | 212 |
| COCC(Cc1ccccc1)NC(=O)C[C@H](N)C(=O)N1CCC[C@H]1C#N (stereo not given in full) | 182 |
| CC(C)C(Cc1ccccc1)NC(=O)C[C@H](N)C(=O)N1CCC[C@H]1C#N (stereo not given in full) | 305 |
| N#C[C@@H]1CCCN1C(=O)[C@@H](N)CC(=O)NC(Cc1ccccc1)c1ccccc1 (stereo not given in full) | 252 |
| N#C[C@@H]1CCCN1C(=O)[C@@H](N)CC(=O)N1CCN(C(c2ccc(F)cc2)c2ccc(F)cc2)CC1 | 227 |
| N#Cc1ccc[n+](N2CCN(C(=O)C[C@H](N)C(=O)N3CCC[C@H]3C#N)CC2)c1 | 87 |
| N#C[C@@H]1CCCN1C(=O)[C@@H](N)CC(=O)NCc1ccccc1 | 238 |

Molecular target: Dipeptidyl peptidase 2 (Homo sapiens, UniProt Q9UHL4)
Assay: Inhibitory concentration against DPP-II [Quiescent cell proline dipeptidase] or DPP-VII

| IC50 [nM] | Compound |
| --- | --- |
| 31300 | COc1cc2c(cc1OC)CN(C(=O)C[C@H](N)C(=O)N1CCC[C@H]1C#N)CC2 |
